{"source": "patent US9974782B2", "about": "“Phosphodiesterase inhibitors and uses thereof” (THE TRUSTEES OF COLUMBIA UNIVERSITY IN THE CITY OF NEW YORK, priority 2008, dated 2018)", "key": {"[1]": {"conditions": "mouse, in vivo, po", "protocol": "Timeline: 24 h-7 days. In the timeline, no fatal effects were observed.\nDosage: • Single dose at 500 mg/kg, i.p. • Single dose at 1000 mg/kg, i.p. • Single dose at 2000 mg/kg, p.o."}, "[2]": {"tested_on": "hippocampal slices treated with Aβ42", "assay": "LTP in hippocampal slices treated with 200 nM oligomeric Aβ42", "type": "cell-based, mouse", "conditions": "YF012403 50 nM for 10 min prior to the θ-burst", "protocol": "Following cutting hippocampal slices were transferred to a recording chamber where they were maintained at 29° C. and perfused with artificial cerebrospinal fluid (ACSF) continuously bubbled with 95% O2 and 5% CO2. The ACSF composition in mM was: 124.0 NaCl, 4.4 KCl, 1.0 Na2HPO4, 25.0 NaHCO3, 2.0 CaCl2, 2.0 MgSO4, 10.0 glucose. CA1 fEPSPs were recorded by placing both the stimulating and the recording electrodes in CA1 stratum radiatum. BST was assayed either by plotting the stimulus voltages against slopes of fEPSP, or by plotting the peak amplitude of the fiber volley against the slope of the fEPSP. A 15 min baseline was recorded every min at an intensity that evokes a response ˜35% of the maximum evoked response. LTP was induced using q-burst stimulation (4 pulses at 100 Hz, with the bursts repeated at 5 Hz and each tetanus including 3 ten-burst trains separated by 15 sec). Responses were recorded for 1 hr after tetanization and measured as field-excitatory-post-synaptic potential (fEPSP) slope expressed as percentage of baseline.\nIn these experiments YF012403 (the cyclopropyl lead compound) was directly given to the hippocampal slices through the perfusion system for 10 min prior to the theta burst. Aβ42 was given for 20 minutes prior to the theta burst. Oligomeric Aβ42 was prepared as described previously (Stine et al., 2003). […]"}, "[3]": {"conditions": "rodents; cited from earlier work"}, "[4]": {"tested_on": "human Aβ40 and Aβ42 levels", "assay": "Determination of Aβ levels (ELISA of cerebral cortex)"}, "J20 mice": {"tested_on": "J20 mice", "assay": "Fear conditioning and RAWM in J20 mice", "type": "in vivo, mouse"}, "APP/PS1 mice": {"tested_on": "APP/PS1 mice", "assay": "Morris water maze and probe trial (reference memory)", "type": "in vivo, mouse", "protocol": "To investigate sildenafil effect on long-term memory, reference memory was tested with a Morris water maze task that is known to require hippocampal function^A20 and is impaired after 6 months of age in the APP/PS1 mice^A12. Vehicle-treated transgenic mice needed more time to find the hidden platform after six sessions compared to WT littermates (FIG. 3C). […] This task is performed after the sixth hidden-platform session. The platform is removed from the water and the animals are allowed to search for 60 seconds. A mouse, knowing that the platform was in a certain position, will trawl repeatedly over that position looking for it. […] The amount of time spent in each quadrant of the maze can be used to evaluate the spatial bias of an animal's search pattern. Vehicle-treated WT mice spent more time in the target quadrant (TQ), where the platform had been located during training than in other quadrants, than in the adjacent quadrant to the right (AR), in the adjacent quadrant to the left (AL), or in the opposite quadrant (OQ) (FIG. 3D). Also, sildenafil improved the performance of the APP/PS1 mice which searched more in the quadrant where the platform had been located during training than in other quadrants (FIG. 3D). […] Sildenafil-treated WT mice remembered where the platform was the previous days and spent about the same time as vehicle-treated WT littermates. […] Behavioral Studies-Reference Memory: The task studied with the Morris water maze has been previously described^12. Briefly, mice were trained in 2 daily sessions (4 hours apart), each consisting of 3 trials (1 minute each), for 3 days. Time required to reach the hidden platform was recorded. To test the retention of the spatial memory, 4 probe trials were performed after the training with the platform […]. The maze was divided into 4 quadrants. The percent of time spent in the quadrant that previously contained the platform was recorded and analyzed with a video tracking system ([…] Image)."}, "cGMP": {"tested_on": "cGMP", "conditions": "sildenafil 3 mg/kg; cited from earlier work"}, "[5]": {"conditions": "humans; cited from earlier work"}, "[6]": {"conditions": "in vivo, cited from earlier work"}, "[7]": {"conditions": "3-month-old APP/PS1, daily injections for 3 weeks"}, "[8]": {"conditions": "APP/PS1 at 7-10 months, injections for 3 weeks at 3 months"}, "[9]": {"conditions": "APP/PS1, 3 mg/Kg i.p. for 3 weeks at 3 months"}, "[10]": {"conditions": "APP/PS1 previously treated with sildenafil"}, "[11]": {"conditions": "WT previously treated with sildenafil"}, "[12]": {"conditions": "WT, 3 mg/Kg i.p. for 3 weeks at 3 months"}, "[13]": {"conditions": "treated at 3 months, tested at 6-8 months"}}, "note": "“Also recorded” adds a separate entry of the source. Where two headings read alike, the source gives them in different places.", "data": [{"molecule": "COc1ccc(CNc2c(CO)cnc3c(C4CC4)cc(C#N)cc23)cc1Cl", "note": "[YF012403, 4-(3-chloro-4-methoxybenzylamino)-8-cyclopropyl-3-(hydroxymethyl)-quinoline-6-carbonitrile]", "values": [{"measurement": "safe dose in acute toxicity test", "setting": "[1]", "result": "up to 2 g/kg"}, {"measurement": "effect on LTP deficit in Aβ42-treated slices in words", "setting": "[2]", "result": "ameliorates the LTP deficit; also recorded: ameliorated; also recorded: reverses LTP impairment"}]}, {"molecule": "CCCc1nn(C)c2c(=O)[nH]c(-c3cc(S(=O)(=O)N4CCN(C)CC4)ccc3OCC)nc12", "note": "[sildenafil, 5-[2-ethoxy-5-(4-methyl-1-piperazinylsulphonyl)phenyl]-1-methyl-3-n-propyl-1,6-dihydro-7H-pyrazolo[4,3-d]pyrimidin-7-one]", "values": [{"measurement": "in vivo half-life", "setting": "[3]", "result": 0.4, "unit": "h"}, {"measurement": "minimum time needed for a positive effect on Aβ40 levels", "setting": "[4]; 3 mg/kg at 3 months of age, measured at 7-8 months", "result": 3, "unit": "weeks"}, {"measurement": "minimum time needed for a positive effect on Aβ40", "setting": "[4]; 3 mg/kg, measured immediately after treatment", "result": 2, "unit": "weeks"}, {"measurement": "minimum effective dose that decreases Aβ40 and Aβ42 levels", "setting": "[4]; 3-month-old APP/PS1", "result": 3, "unit": "mg/kg"}, {"measurement": "Aβ40 as % of vehicle-treated APP/PS1 mice", "setting": "[4]; [7]", "result": "~64", "unit": "%"}, {"measurement": "Aβ40 level", "setting": "[4]; [7]", "result": "1.71±0.22", "unit": "ng/mg cortex"}, {"measurement": "Aβ42 as % of vehicle-treated APP/PS1 mice", "setting": "[4]; [7]", "result": "~80", "unit": "%"}, {"measurement": "Aβ42 level", "setting": "[4]; [7]", "result": "3.56±0.23", "unit": "ng/mg cortex"}, {"measurement": "effect on Aβ levels in words", "setting": "[4]; APP/PS1, 1.5 mg/kg for 3 weeks", "result": "did not decrease Aβ levels"}, {"measurement": "Aβ40 as % of vehicle-treated APP/PS1 mice", "setting": "[4]; [8]", "result": "~65", "unit": "%"}, {"measurement": "Aβ40 level", "setting": "[4]; [8]", "result": "49.59±7.93", "unit": "ng/mg cortex"}, {"measurement": "Aβ42 as % of vehicle-treated APP/PS1 mice", "setting": "[4]; [8]", "result": "~73", "unit": "%"}, {"measurement": "Aβ42 level", "setting": "[4]; [8]", "result": "32.55±3.27", "unit": "ng/mg cortex"}, {"measurement": "minimum effective dose that decreases Aβ40 and Aβ42 levels", "setting": "[4]; treated at 3 months, measured at 7-10 months", "result": 3, "unit": "mg/kg"}, {"measurement": "effect on contextual learning in words", "setting": "J20 mice; 3 mg/kg i.p. immediately after training", "result": "improved contextual learning"}, {"measurement": "effect on spatial working memory in words", "setting": "J20 mice; daily injection after training for 3 weeks", "result": "improved spatial working memory"}, {"measurement": "minimum time needed to improve performance with the MWM", "setting": "APP/PS1 mice; 3 mg/kg", "result": 2, "unit": "weeks"}, {"measurement": "minimum time needed to improve performance with the probe trial", "setting": "APP/PS1 mice; 3 mg/kg", "result": 2, "unit": "weeks"}, {"measurement": "Morris water maze, time to find the hidden platform after six sessions", "setting": "APP/PS1 mice; [9]", "result": "32.92 ± 3.50", "unit": "s"}, {"measurement": "time to platform as % of vehicle-treated WT mice", "setting": "APP/PS1 mice; [9]", "result": "~114", "unit": "%"}, {"measurement": "probe test, % of time spent in target quadrant (TQ)", "setting": "APP/PS1 mice; [10]", "result": "32.25±0.58", "unit": "%"}, {"measurement": "time in TQ as % of vehicle-treated WT littermates", "setting": "APP/PS1 mice; [10]", "result": "~97", "unit": "%"}, {"measurement": "probe test, % of time spent in target quadrant (TQ)", "setting": "APP/PS1 mice; [11]", "result": "33.35±1.38", "unit": "%"}, {"measurement": "time in TQ as % of vehicle-treated WT littermates", "setting": "APP/PS1 mice; [11]", "result": "~100", "unit": "%"}, {"measurement": "Morris water maze, time to find the hidden platform", "setting": "APP/PS1 mice; [12]", "result": "25.64 ± 3.16", "unit": "s"}, {"measurement": "time to platform as % of vehicle-treated WT mice", "setting": "APP/PS1 mice; [12]", "result": "~89", "unit": "%"}, {"measurement": "minimum concentration needed to improve performance with the MWM", "setting": "APP/PS1 mice; [13]", "result": 3, "unit": "mg/kg"}, {"measurement": "minimum concentration needed to improve performance with the probe trial", "setting": "APP/PS1 mice; [13]", "result": 3, "unit": "mg/kg"}, {"measurement": "cGMP concentration in the hippocampus", "setting": "cGMP", "result": "~2.5", "unit": "µM"}, {"measurement": "in vivo half-life", "setting": "[5]", "result": "~4", "unit": "h"}, {"measurement": "ability to cross the BBB in words", "setting": "[6]", "result": "reported to cross the blood brain barrier; also recorded: reported to cross the BBB"}, {"measurement": "ability to cross the BBB in words", "setting": "[6]; listed as Sildenafil", "result": "reported to cross the BBB"}]}]}
